In patent US5614521A, “Benzene derivatives having NGF production-promoting activity” (Sankyo Company, Limited, priority 1991, dated 1997):
Where two headings read alike, the source gives them in different places.

Test system: L-M cells
Experiment: NGF production and secretion by mouse L-M cells (NGF promoter activity), NGF level by enzyme immunoassay
Format: cell-based
Details: read-out: % Control (NGF produced and secreted relative to cells not treated with the test compounds); for activity at 10 µg/mL: test compounds of this invention at 10 γ/ml
Text: Furukawa et al. have reported that fibroblast-forming L-M cells from mouse connective tissue can produce and secrete a relatively large amount of NGF, and that catecholamines accelerate such production and secretion of NGF (J. Biol. Chem., 261, 6039-6047, 1986). […] The test compounds of this invention were employed at 10 γ/ml, and the known compounds were employed at 20 γ/ml.
Culture medium 199 containing 0.5% peptone was used for culturing L-M cells (for the culture medium 199, see, for instance, Morgan et al., proc. Soc. Exp. Biol. Med., 73, 1 (1950) or Morgan et al. J. Natl. Cancer Inst., 16, 557 (1955). About […] of L-M cells were placed in each well of a culture plate with 24 wells, and cultured using a CO2 incubator (37° C., 5% CO2) until confluence. After removing the culture medium, the cultured cells were washed once with a wash solution which was 199 culture medium containing 0.5% bovine serum albumin (Fraction V, Sigma). The test compounds were added to a specified concentration to a 199 culture medium containing 0.5% bovine serum albumin, and used to treat 0.5 ml of L-M cells. After culturing the L-M cells in a CO2 incubator for 24 hours, the medium was recovered and the NGF level was determined.
NGF was quantitatively determined using an enzyme immunoassay [Korshing, Thoenen, et al. Proc. Natl. Acad. Sci. USA, 80, 3513-3516, (1983)]. 75 μl of a solution of anti-mouse β-NGF antibody (0.3 μg/ml, pH 9.6; Boehringer Mannheim) was piperted into each well of a polystyrene plate with 96 wells. After allowing the plate to stand at room temperature for an hour, the antibody was removed by washing three times with the wash solution. 50 μl of a solution of standard β-NGF (Wako Pure Chemical Industries Ltd.) or of the recovered medium was piperted into the wells. After allowing the plate to stand for […] at room temperature,the standard β-NGF or test solution was removed and each well was washed three times. 50 μl of a solution of β-NGF monoclonal antibody (100 mU/ml, pH 7.0; BoehringerMannheim) labelled with β-galactosidase was piperted into each well. After allowing the plate to stand at 4° C. for 15-18 hours, enzyme labelled antibody was removed and the wells washed three times followed by pipetting 100 μl of a solution of chlorophenol red-β-D-galactopyranoside (1 mg/ml, pH 7.3; BoehringerMannheim) into each well. Color was allowed to develop (after 2-3 hours at room temperature), and the absorbance was determined at 570 nm.
The amount of NGF was calculated from a standard curve. The results are expressed as a relative value (%) which is relative to the amount of NGF produced and secreted by cells treated not with the test compounds. The numerical values (% Control) are expressed by the mean value in the 3 wells of the control (without addition of the test compounds).

[1] = known compounds at 20 γ/ml, L-M cells, 24 hours, 37° C.

SMILES	activity at 10 µg/mL (L-M cells, 24 hours, 37° C.) [%]	activity at 20 µg/mL [1] [%]	also measured
Nc1ccc(CCC(=O)NC23CC4CC(CC(C4)C2)C3)cc1N [Example 22, N-(1-Adamantyl)-3-(3,4-diaminophenyl)propionamide]	380	–	–
Nc1ccc(CCC(=O)Nc2cnc3ccccc3c2)cc1N [Example 34, N-(3-Quinolyl)-3-(3,4-diaminophenyl)propiomide]	606	–	–
Nc1ccc(CCC(=O)N(c2ccccc2)c2ccccc2)cc1N [Example 40, N,N-Diphenyl-3-(3,4-diaminophenyl) propionamide]	276	–	–
Nc1ccc(CCC(=O)Nc2ccc(C(=O)c3ccccc3)cc2)cc1N [Example 43, N-(4-Benzoylphenyl)-3-(3,4-diaminophenyl)propionamide]	491	–	–
Nc1cc(CCC(=O)NC2CCc3ccccc32)ccc1O (stereo not drawn) [Example 53, N-(1-Indanyl)-3-(4-hydroxy-3-aminophenyl)propionamide]	315	–	–
N[C@@H](Cc1ccc(O)c(O)c1)C(=O)O [L-DOPA, reference compound]	–	117 ± 7	–
O=C(O)/C=C/c1ccc(O)c(O)c1 [caffeic Acid, reference compound]	–	123 ± 14	–
CNC[C@H](O)c1ccc(O)c(O)c1 [epinephrine, reference compound]	–	–	activity at 20 µg/mL (24 h): 140 ± 24%
CC(C)NCC(O)c1ccc(O)c(O)c1 (stereo not drawn) [isoproterenol, reference compound]	–	168 ± 22	–
